Measurements reported in patent US12077604B2, “Deuterated compounds, compositions, and methods for treating cancers associated with ETBR activation” (ENB Therapeutics Inc., priority 2018, dated 2024).
“Also recorded” adds a separate entry of the source.

Legend:
[1] = target: T1, ETA (h) (Homo sapiens, UniProt P25101); experiment: ETA (h) cellular antagonist effect; type: cell-based
T1 sequence (P25101 21-427): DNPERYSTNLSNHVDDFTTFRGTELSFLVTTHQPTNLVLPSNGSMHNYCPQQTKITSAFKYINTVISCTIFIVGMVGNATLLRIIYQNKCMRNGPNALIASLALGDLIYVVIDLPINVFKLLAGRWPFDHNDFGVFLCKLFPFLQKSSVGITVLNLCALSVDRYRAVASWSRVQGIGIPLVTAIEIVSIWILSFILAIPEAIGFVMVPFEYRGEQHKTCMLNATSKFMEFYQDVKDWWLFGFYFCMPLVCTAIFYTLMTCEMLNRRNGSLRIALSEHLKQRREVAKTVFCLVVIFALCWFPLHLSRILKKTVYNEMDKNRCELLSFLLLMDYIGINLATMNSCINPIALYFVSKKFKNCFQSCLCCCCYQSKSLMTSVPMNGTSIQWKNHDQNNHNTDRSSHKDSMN
Experimental: FIGS. 5A and 5B show determination of ETA (h) inhibitory effect for A) BQ-788 and B) BQ-788-B, a specifically deuterated ETRB antagonist. Cellular agonist effect was calculated as a % of control response to a known reference agonist for ETA (h), and cellular antagonist effect was calculated as a % inhibition of control reference agonist response for ETA.
Cellular agonist effect was calculated as a % of control response to a known reference agonist for ETA (h), and cellular antagonist effect was calculated as a % inhibition of control reference agonist response for ETA.

[2] = target: T2, CXCR4 (h) (Homo sapiens, UniProt P61073); experiment: CXCR4 (h) cellular antagonist effect, impedance by dielectric spectroscopy, stimulated with 1 nM SDF-1α; type: cell-based; settings: recombinant human CXCR4 in CHO cells, 28° C.
T2 construct: expressed in transfected cells; host or cells: CHO cells
T2 sequence (P61073 whole entry): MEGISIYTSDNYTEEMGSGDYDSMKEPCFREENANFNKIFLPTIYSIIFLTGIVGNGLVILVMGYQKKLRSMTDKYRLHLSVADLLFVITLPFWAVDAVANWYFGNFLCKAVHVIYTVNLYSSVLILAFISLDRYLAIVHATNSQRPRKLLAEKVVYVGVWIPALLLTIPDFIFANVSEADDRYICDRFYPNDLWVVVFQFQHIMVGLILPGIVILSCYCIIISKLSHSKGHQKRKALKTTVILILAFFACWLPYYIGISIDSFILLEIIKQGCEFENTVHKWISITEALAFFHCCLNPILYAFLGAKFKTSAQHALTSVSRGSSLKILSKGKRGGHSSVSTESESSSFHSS
Experimental: FIGS. 4A and 4B show determination of CXCR4 (h) inhibitory effect for, A) BQ-788 and B) BQ-788-B, a specifically deuterated ETRB antagonist (i.e., “Compound 1”). Cellular agonist effect was calculated as a % of control response to a known reference agonist for CXCR4 (h), and cellular antagonist effect was calculated as a % inhibition of control reference agonist response for CXCR4.
Determination of CXCR4 inhibitory effect. The inhibitory effect on CXCR4 (h) was determined for BQ-788 (FIG. 4A), and BQ-788 (FIG. 4B) BQ-788-B (i.e., “Compound 1”). Cellular agonist effect was calculated as a % of control response to a known reference agonist for CXCR4 (h), and cellular antagonist effect was calculated as a % inhibition of control reference agonist response for CXCR4. Recombinant human CXCR4 was expressed in CHO cells, and stimulated with 1 nM SDF-1α and incubated at 28° C. Dielectric spectroscopy was used to measure impedance of the cells.

[3] = target: T3, ETB (h) (Homo sapiens, UniProt P24530); experiment: ETB (h) cellular antagonist effect; type: cell-based
T3 sequence (P24530 27-442): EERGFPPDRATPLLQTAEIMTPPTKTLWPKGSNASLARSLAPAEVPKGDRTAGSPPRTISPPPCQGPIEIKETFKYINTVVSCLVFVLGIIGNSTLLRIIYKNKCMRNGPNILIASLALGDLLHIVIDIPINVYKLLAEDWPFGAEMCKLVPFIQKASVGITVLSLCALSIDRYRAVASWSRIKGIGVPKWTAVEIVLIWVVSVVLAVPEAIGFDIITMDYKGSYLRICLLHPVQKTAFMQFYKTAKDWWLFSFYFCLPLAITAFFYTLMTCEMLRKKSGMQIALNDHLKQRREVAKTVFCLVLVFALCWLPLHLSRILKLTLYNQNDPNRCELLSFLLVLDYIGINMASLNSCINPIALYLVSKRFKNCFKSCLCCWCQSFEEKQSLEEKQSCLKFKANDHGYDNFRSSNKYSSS
Experimental: (§1) Cellular agonist effect was calculated as a % of control response to a known reference agonist for ETB (h), and cellular antagonist effect was calculated as a % inhibition of control reference agonist response for ETB.
as §1, with “Determination of ETBR inhibitory effect for specifically deuterated ETRB antagonists. […] Cellular” for “Cellular”

[4] = test system: ETBR; experiment: Plasma ET-1 ELISA after IV infusion, indirect measure of ETBR engagement; type: in vivo; settings: rats, 250 μg/kg IV infusion
Experimental: Briefly, rats (N=4 animals per timepoint) were administered either BQ-788 or the deuterated form, BQ-788-B at a dose of 250 μg/kg via IV infusion. Plasma samples were collected at various time points and ET-1 ELISA performed. BQ788 and BQ788-B are peptide drugs that are rapidly degraded in plasma and thus drug levels are difficult to detect directly. […] As such, plasma levels of ET-1 are commonly used as an indirect measure of BQ-788 biologic activity.

Compound	IC50, inhibition of control reference agonist response for ETA (h) [1]	IC50, inhibition of control reference agonist response for CXCR4 (h) [2]	IC50 ([3]; read-out: IC50, inhibition of control reference agonist response for ETB (h)) [nM]	plasma ET-1 response: prolonged peak out to ([4]; ET-1 ELISA)	biologic activity in vivo by plasma ET-1 (duration and amplitude of response) ([4]; compared with non-deuterated BQ-788)	IC50 ([2]; read-out: IC50, inhibition of control reference agonist response for CXCR4 (h)) [nM]	Kd [3] [nM]
[2H]C[C@@H]1CCC[C@H](C[2H])N1C(=O)N[C@@H](CC(C)(C)C)C(=O)N[C@H](Cc1cn(C(=O)OC)c2ccccc12)C(=O)N[C@H](CCCC)C(=O)O [BQ-788-B]	not calculable	not calculable	96	about 3 hours	enhanced duration and amplitude of response relative to the undeuterated form; also recorded: enhanced biological activity relative to BQ-788	–	–
CCCC[C@@H](NC(=O)[C@@H](Cc1cn(C(=O)OC)c2ccccc12)NC(=O)[C@H](CC(C)(C)C)NC(=O)N1[C@H](C)CCC[C@@H]1C)C(=O)O [BQ-788]	not calculable	–	–	–	–	> 1000	13
